# Measured values as given in ChEMBL document CHEMBL4304811, “Development of a Water-Soluble Indolylmaleimide Derivative IM-93 Showing Dual Inhibition of Ferroptosis and NETosis” (ACS Med Chem Lett, 2019).
# What was measured:
# [1] = target: Cyclin-dependent kinase 3 (Homo sapiens) (UniProt Q00526); assay: Binding affinity to wild-type human full length CDK3 (M1 to H305 residues) expressed in bacterial expression system assessed as residual binding level at 10 uM by Kinomescan method relative to control
# [2] = target: Death-associated protein kinase 3 (Homo sapiens) (UniProt O43293); assay: Binding affinity to wild-type human partial length DAPK3 (M1 to A277 residues) expressed in bacterial expression system assessed as residual binding level at 10 uM by Kinomescan method relative to control
# [3] = target: Activin receptor type-2B (Homo sapiens) (UniProt Q13705); assay: Binding affinity to wild-type human ACVR2B (H169 to D504 residues) expressed in bacterial expression system assessed as residual binding level at 10 uM by Kinomescan method relative to control
# [4] = target: Cyclin-dependent kinase 5 (Homo sapiens) (UniProt Q00535); assay: Binding affinity to wild-type human full length CDK5 (M1 to P292 residues) expressed in bacterial expression system assessed as residual binding level at 10 uM by Kinomescan method relative to control
# [5] = target: MAP kinase-activated protein kinase 5 (Homo sapiens) (UniProt Q8IW41); assay: Binding affinity to wild-type human partial length MAPKAPK5 (M1 to D322 residues) expressed in mammalian expression system assessed as residual binding level at 10 uM by Kinomescan method relative to control
# [6] = target: Ribosomal protein S6 kinase alpha-5 (Homo sapiens) (UniProt O75582); assay: Binding affinity to wild-type human partial length N- terminal RPS6KA5 kinase domain 1 expressed in bacterial expression system assessed as residual binding level at 10 uM by Kinomescan method relative to control
# [7] = target: Eukaryotic translation initiation factor 2-alpha kinase 1 (Homo sapiens) (UniProt Q9BQI3); assay: Binding affinity to wild-type human partial length EIF2AK1 (Q147 to E603 residues) expressed in mammalian expression system assessed as residual binding level at 10 uM by Kinomescan method relative to control
# [8] = target: Serine/threonine-protein kinase tousled-like 2 (Homo sapiens) (UniProt Q86UE8); assay: Binding affinity to wild-type human partial length TLK2 (E424 to N749 residues) expressed in bacterial expression system assessed as residual binding level at 10 uM by Kinomescan method relative to control
# [9] = target: LIM domain kinase 2 (Homo sapiens) (UniProt P53671); assay: Binding affinity to wild-type human full length LIMK2 (M1 to P638 residues) expressed in bacterial expression system assessed as residual binding level at 10 uM by Kinomescan method relative to control
# [10] = target: Tyrosine-protein kinase Srms (Homo sapiens) (UniProt Q9H3Y6); assay: Binding affinity to wild-type human partial length SRMS (L208 to P488 residues) expressed in mammalian expression system assessed as residual binding level at 10 uM by Kinomescan method relative to control
# [11] = target: Serine/threonine-protein kinase TAO3 (Homo sapiens) (UniProt Q9H2K8); assay: Binding affinity to wild-type human partial length TAOK3 (M1 to T316 residues) expressed in mammalian expression system assessed as residual binding level at 10 uM by Kinomescan method relative to control
# [12] = target: Serine/threonine-protein kinase Nek4 (Homo sapiens) (UniProt P51957); assay: Binding affinity to wild-type human full length NEK4 (M1 to F841 residues) expressed in mammalian expression system assessed as residual binding level at 10 uM by Kinomescan method relative to control
# [13] = target: Insulin-like growth factor 1 receptor (Homo sapiens) (UniProt P08069); assay: Binding affinity to wild-type human partial length IGF1R (L972 to D1294 residues) expressed in bacterial expression system assessed as residual binding level at 10 uM by Kinomescan method relative to control
# [14] = target: Serine/threonine-protein kinase PAK 2 (Homo sapiens) (UniProt Q13177); assay: Binding affinity to wild-type human partial length PAK2 (P151 to R525 residues) expressed in bacterial expression system assessed as residual binding level at 10 uM by Kinomescan method relative to control
# [15] = target: Myosin light chain kinase family member 4 (Homo sapiens) (UniProt Q86YV6); assay: Binding affinity to wild-type human partial length MYLK4 (V79 to S380 residues) expressed in bacterial expression system assessed as residual binding level at 10 uM by Kinomescan method relative to control
# [16] = target: Serine/threonine-protein kinase D1 (Homo sapiens) (UniProt Q15139); assay: Binding affinity to wild-type human partial length PRKD1 (G551 to E870 residues) expressed in bacterial expression system assessed as residual binding level at 10 uM by Kinomescan method relative to control
# [17] = target: Tyrosine-protein kinase ZAP-70 (Homo sapiens) (UniProt P43403); assay: Binding affinity to wild-type human partial length ZAP70 (D20 to G299 residues) expressed in mammalian expression system assessed as residual binding level at 10 uM by Kinomescan method relative to control
# [18] = target: Calcium/calmodulin-dependent protein kinase type 1 (Homo sapiens) (UniProt Q14012); assay: Binding affinity to wild-type human full length CAMK1 (M1 to L370 residues) expressed in bacterial expression system assessed as residual binding level at 10 uM by Kinomescan method relative to control
# [19] = tested on: Tyrosine-protein kinase ABL1 (Homo sapiens), P00519 [F317I]; assay: Binding affinity to human non-phosphorylated ABL1 F317I mutant (S229 to K512 residues) expressed in mammalian expression system assessed as residual binding level at 10 uM by Kinomescan method relative to control
# [20] = tested on: Tyrosine-protein kinase ABL1 (Homo sapiens), P00519 [M351T]; assay: Binding affinity to human phosphorylated ABL1 M351T mutant (S229 to K512 residues) expressed in mammalian expression system assessed as residual binding level at 10 uM by Kinomescan method relative to control
# [21] = target: Serine/threonine-protein kinase haspin (Homo sapiens) (UniProt Q8TF76); assay: Binding affinity to wild-type human partial length HASPIN (I452 to K798 residues) expressed in mammalian expression system assessed as residual binding level at 10 uM by Kinomescan method relative to control
# [22] = target: Receptor tyrosine-protein kinase erbB-4 (Homo sapiens) (UniProt Q15303); assay: Binding affinity to wild-type human partial length ERBB4 (L690 to K994 residues) expressed in bacterial expression system assessed as residual binding level at 10 uM by Kinomescan method relative to control
# [23] = target: Mitogen-activated protein kinase 4 (Homo sapiens) (UniProt P31152); assay: Binding affinity to wild-type human partial length ERK4 (M1 to L365 residues) expressed in bacterial expression system assessed as residual binding level at 10 uM by Kinomescan method relative to control
# [24] = target: Serine/threonine-protein kinase ULK3 (Homo sapiens) (UniProt Q6PHR2); assay: Binding affinity to wild-type human partial length ULK3 (M1 to Q290 residues) expressed in mammalian expression system assessed as residual binding level at 10 uM by Kinomescan method relative to control
# Cyclin-dependent kinase 5 (Homo sapiens), sequence (Q00535 whole entry, looked up, the tested form may be a part): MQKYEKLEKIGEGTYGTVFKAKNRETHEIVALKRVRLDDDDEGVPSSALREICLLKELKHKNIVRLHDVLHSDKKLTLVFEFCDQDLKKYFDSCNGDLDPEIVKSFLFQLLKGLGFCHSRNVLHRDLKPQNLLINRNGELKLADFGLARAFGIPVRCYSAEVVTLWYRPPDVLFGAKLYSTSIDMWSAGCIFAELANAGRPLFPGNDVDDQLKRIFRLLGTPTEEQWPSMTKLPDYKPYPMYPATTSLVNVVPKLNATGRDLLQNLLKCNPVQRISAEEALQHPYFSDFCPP
# Serine/threonine-protein kinase PAK 2 (Homo sapiens), sequence (Q13177 whole entry, the tested form may be a part): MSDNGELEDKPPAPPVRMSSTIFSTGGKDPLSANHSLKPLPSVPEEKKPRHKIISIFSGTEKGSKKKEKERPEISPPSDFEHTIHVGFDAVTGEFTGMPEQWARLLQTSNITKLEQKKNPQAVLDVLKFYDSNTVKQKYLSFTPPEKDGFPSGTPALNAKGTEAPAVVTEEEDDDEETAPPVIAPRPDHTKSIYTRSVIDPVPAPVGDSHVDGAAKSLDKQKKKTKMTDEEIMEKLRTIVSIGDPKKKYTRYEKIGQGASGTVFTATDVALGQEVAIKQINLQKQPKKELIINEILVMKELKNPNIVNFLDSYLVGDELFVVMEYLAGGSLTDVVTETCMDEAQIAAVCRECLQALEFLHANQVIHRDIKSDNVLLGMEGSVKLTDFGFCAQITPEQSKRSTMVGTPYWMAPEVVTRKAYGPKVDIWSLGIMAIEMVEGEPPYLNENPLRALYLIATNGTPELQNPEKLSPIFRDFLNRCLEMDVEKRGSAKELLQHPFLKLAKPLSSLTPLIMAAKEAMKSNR
# Serine/threonine-protein kinase tousled-like 2 (Homo sapiens), sequence (Q86UE8 whole entry, looked up, the tested form may be a part): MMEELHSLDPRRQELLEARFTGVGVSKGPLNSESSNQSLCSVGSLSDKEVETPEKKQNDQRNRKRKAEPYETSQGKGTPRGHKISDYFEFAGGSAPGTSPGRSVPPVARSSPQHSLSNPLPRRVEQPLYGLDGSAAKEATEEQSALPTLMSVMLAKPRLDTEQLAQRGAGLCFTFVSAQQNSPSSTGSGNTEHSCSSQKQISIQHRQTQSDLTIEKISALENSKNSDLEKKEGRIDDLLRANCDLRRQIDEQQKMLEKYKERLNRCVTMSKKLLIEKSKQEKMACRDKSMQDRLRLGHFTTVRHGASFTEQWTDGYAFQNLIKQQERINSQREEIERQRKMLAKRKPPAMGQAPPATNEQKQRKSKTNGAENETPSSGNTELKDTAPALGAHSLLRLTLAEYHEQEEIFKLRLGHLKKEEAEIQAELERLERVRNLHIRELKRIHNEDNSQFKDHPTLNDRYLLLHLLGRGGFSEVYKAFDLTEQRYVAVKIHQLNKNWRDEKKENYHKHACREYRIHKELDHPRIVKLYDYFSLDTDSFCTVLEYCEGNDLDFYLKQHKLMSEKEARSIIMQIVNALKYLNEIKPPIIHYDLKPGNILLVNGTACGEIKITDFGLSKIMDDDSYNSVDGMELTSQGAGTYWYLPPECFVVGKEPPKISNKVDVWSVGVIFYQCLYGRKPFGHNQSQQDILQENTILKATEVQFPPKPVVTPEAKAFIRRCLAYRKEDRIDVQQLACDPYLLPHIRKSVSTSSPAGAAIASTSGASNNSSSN
# Myosin light chain kinase family member 4 (Homo sapiens), sequence (Q86YV6 whole entry, the tested form may be a part): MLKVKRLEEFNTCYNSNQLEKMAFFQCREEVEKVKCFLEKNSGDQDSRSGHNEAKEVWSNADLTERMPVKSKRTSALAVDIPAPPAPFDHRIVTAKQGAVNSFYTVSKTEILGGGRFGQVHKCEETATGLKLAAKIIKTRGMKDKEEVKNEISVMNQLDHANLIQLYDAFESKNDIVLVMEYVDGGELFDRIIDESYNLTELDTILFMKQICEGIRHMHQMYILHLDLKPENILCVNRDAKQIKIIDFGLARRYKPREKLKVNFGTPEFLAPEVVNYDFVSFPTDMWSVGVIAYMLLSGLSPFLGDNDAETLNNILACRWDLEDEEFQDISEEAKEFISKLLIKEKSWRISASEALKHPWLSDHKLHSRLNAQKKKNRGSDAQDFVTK
# Tyrosine-protein kinase Srms (Homo sapiens), sequence (Q9H3Y6 whole entry, the tested form may be a part): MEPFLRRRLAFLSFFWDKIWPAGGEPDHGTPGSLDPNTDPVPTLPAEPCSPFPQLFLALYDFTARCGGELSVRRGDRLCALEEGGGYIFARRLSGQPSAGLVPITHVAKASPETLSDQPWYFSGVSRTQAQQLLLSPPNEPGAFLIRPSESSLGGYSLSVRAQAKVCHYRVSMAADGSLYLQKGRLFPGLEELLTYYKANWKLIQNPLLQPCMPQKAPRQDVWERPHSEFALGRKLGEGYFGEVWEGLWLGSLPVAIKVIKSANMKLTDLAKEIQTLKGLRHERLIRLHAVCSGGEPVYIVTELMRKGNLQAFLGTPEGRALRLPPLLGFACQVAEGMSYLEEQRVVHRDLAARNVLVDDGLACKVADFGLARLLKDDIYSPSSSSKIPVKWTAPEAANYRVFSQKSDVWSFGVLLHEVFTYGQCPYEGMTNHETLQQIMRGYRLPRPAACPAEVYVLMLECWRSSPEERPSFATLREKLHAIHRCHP
# MAP kinase-activated protein kinase 5 (Homo sapiens), sequence (Q8IW41 whole entry, the tested form may be a part): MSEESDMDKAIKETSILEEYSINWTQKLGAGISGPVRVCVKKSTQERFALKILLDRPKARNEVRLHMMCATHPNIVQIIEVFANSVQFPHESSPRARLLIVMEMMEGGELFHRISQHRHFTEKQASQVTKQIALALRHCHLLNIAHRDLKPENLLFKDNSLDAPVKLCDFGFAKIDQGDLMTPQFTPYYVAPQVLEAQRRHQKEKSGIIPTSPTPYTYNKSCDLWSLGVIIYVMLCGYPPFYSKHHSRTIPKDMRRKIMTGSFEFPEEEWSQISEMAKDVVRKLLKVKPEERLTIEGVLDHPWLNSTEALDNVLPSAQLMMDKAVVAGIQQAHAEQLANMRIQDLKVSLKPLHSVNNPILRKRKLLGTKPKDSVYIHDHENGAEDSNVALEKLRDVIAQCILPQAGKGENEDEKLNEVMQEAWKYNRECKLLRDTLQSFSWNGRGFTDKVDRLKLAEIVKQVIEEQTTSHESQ
# Ribosomal protein S6 kinase alpha-5 (Homo sapiens), sequence (O75582 whole entry, looked up, the tested form may be a part): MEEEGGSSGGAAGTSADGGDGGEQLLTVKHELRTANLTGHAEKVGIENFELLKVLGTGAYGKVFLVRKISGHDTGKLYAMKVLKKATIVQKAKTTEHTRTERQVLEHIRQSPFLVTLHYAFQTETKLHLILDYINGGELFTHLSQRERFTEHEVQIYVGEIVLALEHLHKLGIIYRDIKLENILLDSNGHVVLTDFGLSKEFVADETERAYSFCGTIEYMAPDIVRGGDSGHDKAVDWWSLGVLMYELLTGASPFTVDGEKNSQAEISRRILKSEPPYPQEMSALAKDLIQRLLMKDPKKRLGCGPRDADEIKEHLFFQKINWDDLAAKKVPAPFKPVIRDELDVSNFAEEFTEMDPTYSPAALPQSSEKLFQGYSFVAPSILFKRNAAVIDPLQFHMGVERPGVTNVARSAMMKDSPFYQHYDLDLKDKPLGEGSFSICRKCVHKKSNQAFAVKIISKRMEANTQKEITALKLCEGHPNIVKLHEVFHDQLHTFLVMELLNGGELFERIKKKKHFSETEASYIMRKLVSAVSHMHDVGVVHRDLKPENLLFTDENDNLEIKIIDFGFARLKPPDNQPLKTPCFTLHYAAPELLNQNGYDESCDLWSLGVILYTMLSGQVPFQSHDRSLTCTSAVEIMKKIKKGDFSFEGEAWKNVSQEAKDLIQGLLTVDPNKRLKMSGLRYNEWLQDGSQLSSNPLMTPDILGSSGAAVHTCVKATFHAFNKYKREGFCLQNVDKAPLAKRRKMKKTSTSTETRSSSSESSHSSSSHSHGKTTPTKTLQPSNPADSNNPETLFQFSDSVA
# Serine/threonine-protein kinase D1 (Homo sapiens), sequence (Q15139 whole entry, the tested form may be a part): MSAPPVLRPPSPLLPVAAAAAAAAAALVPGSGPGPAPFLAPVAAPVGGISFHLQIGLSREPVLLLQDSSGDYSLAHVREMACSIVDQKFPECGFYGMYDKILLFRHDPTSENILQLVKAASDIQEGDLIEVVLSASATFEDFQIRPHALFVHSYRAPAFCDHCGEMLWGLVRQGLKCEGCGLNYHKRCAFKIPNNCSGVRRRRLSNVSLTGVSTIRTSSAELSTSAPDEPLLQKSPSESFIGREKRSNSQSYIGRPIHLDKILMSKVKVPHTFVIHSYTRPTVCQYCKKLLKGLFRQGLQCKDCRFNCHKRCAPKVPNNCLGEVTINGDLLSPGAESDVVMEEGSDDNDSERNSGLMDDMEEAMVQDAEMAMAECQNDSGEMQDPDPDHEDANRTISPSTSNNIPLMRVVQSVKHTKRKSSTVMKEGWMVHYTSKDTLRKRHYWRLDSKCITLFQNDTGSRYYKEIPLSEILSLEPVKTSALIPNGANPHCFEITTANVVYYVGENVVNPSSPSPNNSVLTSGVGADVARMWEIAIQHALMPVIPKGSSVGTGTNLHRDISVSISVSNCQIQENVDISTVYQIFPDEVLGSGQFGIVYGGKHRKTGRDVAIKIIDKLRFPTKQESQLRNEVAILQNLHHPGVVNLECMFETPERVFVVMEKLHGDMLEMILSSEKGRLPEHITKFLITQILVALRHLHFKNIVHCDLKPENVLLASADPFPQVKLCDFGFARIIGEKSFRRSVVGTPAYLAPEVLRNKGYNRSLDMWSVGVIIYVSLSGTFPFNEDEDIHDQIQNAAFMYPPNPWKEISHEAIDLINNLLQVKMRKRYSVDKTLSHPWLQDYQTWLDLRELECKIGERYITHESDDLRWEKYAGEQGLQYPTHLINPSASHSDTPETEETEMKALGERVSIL
# Cyclin-dependent kinase 3 (Homo sapiens), sequence (Q00526 whole entry, looked up, the tested form may be a part): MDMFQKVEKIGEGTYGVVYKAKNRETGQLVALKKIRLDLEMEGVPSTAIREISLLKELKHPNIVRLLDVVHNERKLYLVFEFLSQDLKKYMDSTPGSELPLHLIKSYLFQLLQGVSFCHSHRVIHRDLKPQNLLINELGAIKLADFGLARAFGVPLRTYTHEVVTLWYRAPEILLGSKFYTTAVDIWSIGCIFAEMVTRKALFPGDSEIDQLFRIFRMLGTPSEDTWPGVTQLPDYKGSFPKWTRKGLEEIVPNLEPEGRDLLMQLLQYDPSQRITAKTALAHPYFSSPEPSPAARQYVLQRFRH
compound,measurement,setting,value
CC(C)N1C(=O)C(NCCCN(C)C)=C(c2cn(C)c3ccccc23)C1=O.Cl,Activity,[1],99%
same,Activity,[2],98%
same,Activity,[3],96%
same,Activity,[4],96%
same,Activity,[5],71%
same,Activity,[6],97%
same,Activity,[7],82%
same,Activity,[8],84%
same,Activity,[9],93%
same,Activity,[10],82%
same,Activity,[11],88%
same,Activity,[12],96%
same,Activity,[13],80%
same,Activity,[14],100%
same,Activity,[15],100%
same,Activity,[16],96%
same,Activity,[17],100%
same,Activity,[18],100%
same,Activity,[19],88%
same,Activity,[20],93%
same,Activity,[21],100%
same,Activity,[22],100%
same,Activity,[23],100%
same,Activity,[24],79%
